Assay: gradient 5% acetonitrile 3 min, to 50% in 2 min, to 85% in 15 min, held 3 min, 100 µL/min
Details: column: Zorbax Extend-C18 2.1 x 50 mm; eluents: water / acetonitrile, 0.1% formic acid
Outline: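 Values are retention times taken from adduct peaks that software picked and an analyst inspected. The pure standards were run as mixtures of ~100 molecules on HPLC linked to a quadrupole time-of-flight mass spectrometer, in positive and negative ionization mode. A Zorbax Extend-C18 column (2.1 × 50 mm, 1.8 μm) was used at 100 μL/min with water and acetonitrile, each including 0.1% formic acid.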

SMILES | RP-LC retention time
CN(C)CCn1nnc2cc(-c3noc(-c4ccccc4)n3)ccc21 | 651 s
O=C(NCc1ccc(F)c(Cl)c1)c1ccc2ncnc(N3CCCC3)c2c1 | 670 s
O=C1NCCCn2cc(S(=O)(=O)Nc3ccc(Oc4ccccc4)cc3)cc21 | 768 s
Cc1ccccc1Oc1nccn2c(=O)n(CC(=O)NCc3ccccc3)nc12 | 797 s
CCCNC(=O)Cn1c(CNC(C)=O)nc2ccccc21 | 575 s
O=C(NCCc1ccccc1)C1CC(=O)N(CCc2c[nH]c3ccc(F)cc23)C1 (stereo unspecified) | 867 s
COc1ccc2c(c1)C1(CCN(C(=O)Nc3ccccc3C)C1)C(=O)N2C (stereo unspecified) | 750 s
CCOc1ccc(NC(=O)Nc2cc(C(C)C)ccc2C)cc1 | 1160 s
CCOC(=O)c1noc2ncnc(N3CCC(c4ccccc4)C3)c12 (stereo unspecified) | 1030 s
Cc1cc(-c2c(C)sc(C)c2S(=O)(=O)Nc2ccc(C)c(C)c2)n[nH]1 | 1090 s
COc1ccc(C(=O)N2CC(F)(F)C[C@H]2COc2ccc3c(c2)CCC3)cn1 | 1150 s
O=c1ccn(-c2cccc(F)c2)nc1-c1nc(-c2ccc3c(c2)OCO3)no1 | 846 s
COc1ccc(NC(=O)Cn2c(=O)c3cc(-c4ccco4)nn3c3ncccc32)cc1Cl | 822 s
COc1ccc(-c2noc(C3CCCN3C(=O)c3cccnc3SC)n2)cc1 (stereo unspecified) | 907 s
Cn1nnnc1SCCNCc1ccc2c(c1)OCCO2 | 577 s
O=C(CCn1cnnn1)N1CCC2(CC1)CC(CC(=O)N1CCOCC1)CCO2 (stereo unspecified) | 585 s
Cc1ccc(-n2cc(C3=CCN(CC(=O)NCc4cccs4)CC3)cn2)cc1C | 735 s

SMILES | RP-LC retention time
CSc1nc(N2CCCC2)c2cnn(CCNC(=O)CSc3nnnn3C)c2n1 | 651 s
CC(NC(=O)C1(c2ccc(NS(C)(=O)=O)cc2)CCCCC1)c1ccccc1 (stereo unspecified) | 926 s
NS(=O)(=O)c1ccc(CCNCc2ccc(-c3cc(Cl)cc(Cl)c3)o2)cc1 | 800 s
CCCCN(CC)S(=O)(=O)c1ccc(C(=O)Nc2nc3c(s2)COc2ccccc2-3)cc1 | 1230 s
CC(C)c1ccc(C(O)Cn2ccn3nc(-c4ccc(F)cc4)cc3c2=O)cc1 (stereo unspecified) | 1110 s
COc1cccc(CC(=O)NC(CC(C)C)C(=O)Nc2nc3ccccc3[nH]2)c1 (stereo unspecified) | 721 s
COCCC(=O)N1CCCn2nc(-c3cccs3)cc2C1 | 682 s
CCCN(C(=O)CC)c1nc(-c2ccc(Br)cc2)cs1 | 1410 s
Cc1nc(-c2nnc(NC(=O)Cn3cnc4c3c(=O)n(C)c(=O)n4C)o2)cs1 | 569 s
CCc1ccc(-c2noc(CN3C(=O)COc4ccc(C)cc43)n2)cc1 | 1160 s
O=C(Cn1cccc1-c1nc(-c2ccc3c(c2)OCO3)no1)Nc1ccc2c(c1)OCCO2 | 963 s
COc1ccc(S(=O)(=O)Nc2cccc(-c3cn4ccccc4n3)c2)cc1 | 645 s
Cc1oc2c(c1C(=O)Nc1ccc(C(F)(F)F)cc1)C1=NC(C)(C)CN1C=N2 | 728 s
Cc1ccc(NC(=O)Cn2c(C)nc3c(sc4nc(-c5ccccc5)ccc43)c2=O)c(Cl)c1 | 1140 s
CN1C(=O)c2cc(S(=O)(=O)Nc3ccc(Cl)cc3)ccc2Oc2cccnc21 | 950 s
CCCCCCCC1(C)NC(=O)NC1=O (stereo unspecified) | 817 s

Other lines, results leading:

RP-LC retention time | SMILES
876 s | O=C(c1csc(S(=O)(=O)N2CCC(C(=O)N3CCCCCC3)CC2)c1)N1CCCCCC1
665 s | CCCNC(=O)CCc1c(C)n(C)c2nc(-c3ccccc3)nn2c1=O
772 s | COc1cccc(N2CCN(C(=O)c3[nH]c(C)c(S(=O)(=O)N4CCOCC4)c3C)CC2)c1
647 s | Cc1noc(CNC(=O)C2CCN(C(=O)Nc3ccccc3C(F)(F)F)CC2)n1
743 s | CSc1cccc(NC(=O)N(C)CC2CCOCC2)c1
866 s | Cc1cccc(C2CCCN2C(=O)Cn2cc(Cl)cn2)c1 (stereo unspecified)
1130 s | O=C(NC1CCCC1)N1CC(Oc2cccc(-c3nc(-c4ccccc4)no3)c2)C1
680 s | CCOC(=O)C1CCCN(c2ccc(-n3nc(C)cc3C)nn2)C1 (stereo unspecified)
667 s | Cc1cccc(N2CCN(C(=O)C3CCN(S(=O)(=O)c4cn(C)c(C)n4)CC3)CC2C)c1 (stereo unspecified)
654 s | Cc1ccc2c(Nc3cccc(Cl)c3)c(C(=O)N3CCSCC3)cnc2n1
688 s | O=C(c1ccc(-c2cccnc2)nc1)N1CCN(c2ccccc2F)CC1
700 s | O=C(CSc1ccc(N2CCCC(C(=O)NC3CC3)C2)nn1)Nc1ccc(Cl)cc1F (stereo unspecified)
663 s | Cc1ccc(N(C)S(=O)(=O)c2cc3n(c2)CCCNC3=O)cc1
819 s | CCn1c(C(=O)N2CCN(Cc3ccccc3)CC2)cc2c(-c3cccs3)nn(-c3ccccc3)c21
984 s | Cc1ccc(S(=O)(=O)N2CCCC(c3nnc(COc4ccccc4)o3)C2)c(C)c1 (stereo unspecified)
868 s | CC(NC(=O)C1CCCN(c2ccc(=O)n(-c3cccc(F)c3)n2)C1)c1ccccc1 (stereo unspecified)
601 s | O=C1CCSc2c1cccc2C(=O)N1CCOCC1

RP-LC retention time | SMILES
563 s | O=C(CN1CCCc2nc(C3CC3)ncc2C1=O)NCCCN1CCOCC1
602 s | CCOc1ccc(NC(=O)c2cnc(N3CCN(C)CC3)nc2N)cc1
817 s | Cc1ccc(-n2nc(N3CCN(C(=O)c4ccc(Br)o4)CC3)ccc2=O)cc1
588 s | CC1CCN(c2ccc(-c3cccc(N)c3)nn2)CC1
570 s | CCn1cnc(S(=O)(=O)N2CCC(C(=O)Nc3ncccc3C)CC2)c1
916 s | CC(C)c1ccc(N2C=C(C(=O)N3CCOCC3)S(=O)(=O)c3ccccc32)cc1
655 s | Cc1ccc2cc(CCC(=O)N3CCN(C(=O)c4ccco4)CC3)c(=O)[nH]c2c1
920 s | CC1CCCN(S(=O)(=O)c2ccc(-n3cnc(C(=O)N4CCCCCC4)c3)nc2)C1 (stereo unspecified)
819 s | O=C(Nc1ccc(Cl)cc1)C1CCN(C(=O)C2Sc3ccccc3NC2=O)CC1 (stereo unspecified)
654 s | CCS(=O)(=O)N1CCOc2ccc(NC(=O)COC)cc2C1
926 s | O=C(NC1CCCCCC1)C1CCCN(S(=O)(=O)c2c[nH]c(C(=O)N3CCCCCC3)c2)C1 (stereo unspecified)
588 s | O=C(Nc1ccc(CC(=O)N2CCC(O)CC2)cc1)C1CCC1
858 s | CC(C)CN1CCn2cc(S(=O)(=O)Nc3ccc(Cl)cc3F)cc2C1=O
1020 s | O=C(C1CCN(S(=O)(=O)c2ccc(-c3noc(-c4cccc(F)c4)n3)cc2)CC1)N1CCCC1
778 s | Cc1ccc(NC(=O)NC2CCN(c3ccc(F)cc3)C2=O)c(C)c1 (stereo unspecified)
872 s | COc1cccc(-n2c(N3CCCC(C(=O)NCCC(C)C)C3)nc3ccsc3c2=O)c1 (stereo unspecified)

— the METLIN SMRT retention time set (Domingo-Almenara et al. 2019)
